Patent US7928210B2, “Nucleoside based proliferation imaging markers” (Siemens Medical Solutions USA, Inc., priority 2007, dated 2011)
“Also recorded” adds a separate entry of the source.

Legend:
[1] = target: T1, human thymidine kinase 1 (hTK1) (Homo sapiens, UniProt P04183); assay: hTK-1 kinase phosphorylation, metabolites monitored by LC/MS-SIM; conditions: in vitro
T1 sequence (P04183 1-234): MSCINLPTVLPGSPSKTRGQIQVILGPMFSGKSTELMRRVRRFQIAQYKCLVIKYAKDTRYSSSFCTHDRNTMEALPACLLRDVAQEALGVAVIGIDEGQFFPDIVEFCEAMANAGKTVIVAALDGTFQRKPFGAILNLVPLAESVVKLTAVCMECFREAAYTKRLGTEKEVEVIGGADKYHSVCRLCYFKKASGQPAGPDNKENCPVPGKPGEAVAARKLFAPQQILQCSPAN

A431 tumor bearing mice = assay: In vivo imaging of A431 tumor bearing mice (clearance, tumor localization, tumor ratios); set-up: species or system mouse; conditions: for Localization within the tumor / Type of Clearance: in vivo (rodents), A431 tumor; for Ratio T/B: tumor to background, p.i. 45 min; for Ratio T/M: tumor to muscle
[2] = tested on: SK-N-MC cell line (human brain neuroepithelioma, high S phase); assay: Cancer cell uptake, SK-N-MC; conditions: for Cell Uptake: (ii) SK-N-MC; for Uptake and intracellular retention: SK-N-MC cells in vitro
[3] = tested on: A431 cell line (human skin epidermoid carcinoma, high S phase); assay: Cancer cell uptake, A431; conditions: (i) A431
[4] = tested on: A172 cell line (human brain glioblastoma, low S phase); assay: Cancer cell uptake, A172; conditions: for Cell Uptake: (iii) A172; for Uptake and intracellular retention: A172 cells in vitro
Balb/3T12-3 cells = assay: Cell uptake, Balb/3T12-3; conditions: for Cell Uptake: (iv) Balb/3T12-3; for Uptake and intracellular retention: BalB/3T12-3 cells in vitro
[5] = tested on: normal mouse liver cells (AML12); assay: Liver cell uptake by LC/MS-SIM, normal mouse liver cells; format: cell-based; conditions: AML12, in vitro
Excerpt: (§1) The mouse liver cell uptake of a small number of thymidine analogs was higher than FLT and thymidine, and the levels of human liver cell uptake were similar to FLT and thymidine. Ideally, low levels of liver cell uptake help increase the tumor to background ratios in the PET image. Furthermore, we examined the metabolic profile of the leads (Ta-1, Ta-4, and Ta-10) in vitro using normal mouse liver cell line (AML12) and human liver cancer cell line (HepG2).

DNA = assay: Incorporation into DNA compared against FMAU; format: cell-based; conditions: data not shown
[6] = tested on: human liver cancer cells (HepG2); assay: Liver cell uptake by LC/MS-SIM, human liver cancer cells; format: cell-based; conditions: HepG2, in vitro
Excerpt: as §1

[7] = cited from earlier work

| Compound | Pi % (phosphorylation percentage) [1] | Localization within the tumor (A431 tumor bearing mice) | Type of Clearance (A431 tumor bearing mice) | Cell Uptake [2] | Cell Uptake [3] | Cell Uptake [4] | further results |
| --- | --- | --- | --- | --- | --- | --- | --- |
| Cc1cn([C@@H]2O[C@H](CO)C(O)C2O)c(=O)n(CCF)c1=O (stereo partly shown) [Ta-11] | 9.8% | ≤ 1 % ID/g | Clear through the renal system; localize moderately within the tumor | 0.02 | 0.03 | 0.006 | Ratio T/M (A431 tumor bearing mice; time not given): 0.52 (T/M) |
| Cc1cn([C@H]2CC(O)[C@@H](CO)O2)c(=O)n(Cc2cn(Cc3cc(F)ccn3)nn2)c1=O (stereo partly shown) [Ta-2] | 39.2% |  |  | 0.030 | 0.019 | 0.071 | Cell Uptake (Balb/3T12-3 cells): 0.090 |
| Cc1cn([C@H]2CC(F)[C@@H](CO)O2)c(=O)[nH]c1=O (stereo partly shown) [FLT, 3′-[^18F]fluoro-3′-deoxythymidine, reference compound] | 31% |  | Clear through renal system; localize within the tumor |  |  |  | Injected dose per gram in tumors, on average ([7]; background section): 5% |
| Cc1cn([C@H]2CC(O)[C@@H](CO)O2)c(=O)n(CCCF)c1=O (stereo partly shown) [Ta-14] |  |  |  |  |  |  | Incorporation into DNA (DNA): substantially lower |
| Cc1cn([C@H]2CC(O)[C@@H](CO)O2)c(=O)n(Cc2cn([C@H](C(=O)NCc3cc(F)ccn3)C(C)C)nn2)c1=O (stereo partly shown) [Ta-3] | 25.5% |  | large localization of the tracer in the gut and clearance through the bowels; also recorded: Clear through the bowels; localize mainly in the gut | 0.059 | 0.004 | 0.093 | Cell Uptake (Balb/3T12-3 cells): 0.117 |
| Cc1cn([C@@H]2O[C@H](CO)C(O)C2F)c(=O)[nH]c1=O (stereo partly drawn) [FMAU, 1-(2′-deoxy-2′-[^18F]fluoro-β-D-arabinofuranosyl)-5-methyluracil, reference compound] | 80% |  |  | 0.011 | 0.012 | 0.015 | Type of Clearance ([7]; known / literature (Sun et al. 2005 for FMAU; 11C label for thymidine)): Hepatobiliary clearance^c; Incorporation into DNA (DNA): very high |
| Cc1cn([C@H]2CC(O)[C@@H](CO)O2)c(=O)n(Cc2cn(CCF)nn2)c1=O (stereo partly shown) [Ta-1] | 65.6% | ≤ 1 % ID/g | despite rapid gut clearance, a small percentage of the inject dose penetrated and localized within the tumor; also recorded: Clear through the gut/ hepatobiliary system; localize mainly in the gut; a small percentage of the inject dose penetrate and localize within the tumor | 0.081 | 0.045 | 0.042 | Ratio T/M (A431 tumor bearing mice; p.i. 50 min): 2.1 (T/M; p.i. 50 min); Uptake and intracellular retention [2]: favorably taken up and retained intracellularly; Uptake and intracellular retention [4]: favorably taken up and retained intracellularly; Cell Uptake (Balb/3T12-3 cells): 0.064; Uptake and intracellular retention (Balb/3T12-3 cells): favorably taken up and retained intracellularly |
| Cc1cn([C@@H]2O[C@H](CO)C(O)C2OCCF)c(=O)[nH]c1=O (stereo partly shown) [Ta-7] | 5.6% | ≤ 1 % ID/g | Clear through the gut/ hepatobiliary system; localize mainly in the gut; a small percentage of the inject dose penetrate and localize within the tumor | 0.083 | 0.027 | 0.004 | Ratio T/M (A431 tumor bearing mice; time not given): 1.05 (T/M) |
| Cc1cn([C@H]2CC(n3cc(CF)nn3)[C@@H](CO)O2)c(=O)[nH]c1=O (stereo partly shown) [FLT-Click-1] | 6.1% |  | Clear very rapidly from the blood; localize mainly in the bladder |  |  |  |  |
| Cc1cn([C@H]2CC(O)[C@@H](CO)O2)c(=O)n(Cc2cn([C@H](C(=O)NCc3ccccc3)C(C)C)nn2)c1=O (stereo partly shown) [Ta-6233] | 71.5% |  |  |  |  |  |  |
| O=c1[nH]c(=O)n([C@H]2CC(O)[C@@H](CO)O2)cc1-c1cn(CCF)nn1 (stereo partly shown) [FLT-Click-3] | 0% |  | Clear through the gut; but did not localize within the tumor |  |  |  | Ratio T/B (A431 tumor bearing mice): 1.1 (T/B; p.i. 45 min) |
| Cc1cn([C@H]2CC(O)[C@@H](CO)O2)c(=O)n(Cc2cn(Cc3cccc(Br)c3)nn2)c1=O (stereo partly shown) [Ta-4D] | 51.9% |  |  |  |  |  |  |
| Cc1cn([C@H]2CC(O)[C@@H](CO)O2)c(=O)n(CCn2cc(CF)nn2)c1=O (stereo partly shown) [Ta-5] | 10.2% |  |  | 0.072 | 0.068 | 0.051 |  |

The next lines start with results.

| Pi % (phosphorylation percentage) [1] | Localization within the tumor (A431 tumor bearing mice) | Compound | Type of Clearance (A431 tumor bearing mice) | Cell Uptake [2] | Cell Uptake [3] | Cell Uptake [4] | further results |
| --- | --- | --- | --- | --- | --- | --- | --- |
| 4.5% | ≤ 1 % ID/g | Cc1cn([C@H]2CC(F)[C@@H](CO)O2)c(=O)n(Cc2cn(CCF)nn2)c1=O (stereo partly shown) [FLT-Click-2] | Clear through the gut/ hepatobiliary system; localize moderately within the tumor | 0.080 | 0.003 |  | Ratio T/B (A431 tumor bearing mice): 1.75 (T/B; (p.i. 45 min) |
| 77.4% | 2-3.5 % ID/g | Cc1cn([C@H]2CC(O)[C@@H](CO)O2)c(=O)n(CCF)c1=O (stereo partly shown) [Ta-4, 3-N-(2′-[^18F]fluoroethyl)-thymidine] | has less liver uptake than Ta-1, localizes more strongly within the A-431 based tumor and possesses a clearance mechanism similar to FLT; also recorded: Less liver uptake than Ta-1; localize more strongly within the A431 based tumor; possess a clearance mechanism similar to FLT | 0.218 | 0.172 | 0.142 | Ratio T/M (A431 tumor bearing mice; p.i. 50 min): 2.3 (T/M; p.i 50 min); Uptake and intracellular retention [2]: favorably taken up and retained intracellularly; Uptake and intracellular retention [4]: favorably taken up and retained intracellularly; Liver cell uptake [5]: less than Ta-1; Incorporation into DNA (DNA): substantially lower; Liver cell uptake [6]: less than Ta-1; Uptake and intracellular retention (Balb/3T12-3 cells): favorably taken up and retained intracellularly |
| 18.2% | ≤ 1 % ID/g | Cc1cn([C@@H]2O[C@H](CO)C(O)C2O)c(=O)n(CCF)c1=O (stereo partly shown) [Ta-8] | Clear through the renal system; localize moderately within the tumor | 0.097 | 0.052 | 0.018 | Ratio T/M (A431 tumor bearing mice; time not given): 0.99 (T/M) |
| 4.5% |  | Cc1cn([C@H]2CC(F)[C@@H](CO)O2)c(=O)n(CCF)c1=O (stereo partly shown) [Ta-6] |  | 0.007 | 0.023 | 0.004 |  |
| 9.2% |  | Cc1cn([C@H]2CC(F)[C@@H](CO)O2)c(=O)n(CCF)c1=O (stereo partly shown) [Ta-4F] |  | 0.063 | 0.075 | 0.067 |  |
| 1.4% |  | Cc1cn([C@@H]2O[C@H](CO)C(O)C2F)c(=O)n(CCF)c1=O (stereo partly shown) [Ta-9] |  | 0.014 | 0.027 | 0.009 |  |
| 27.5% | ≤ 1 % ID/g | Cc1cn([C@H]2CC(O)[C@@H](CO)O2)c(=O)n(CC(O)CF)c1=O (stereo partly shown) [Ta-10] | Clear through the gut/renal system; localize moderately within the tumor | 0.031 | 0.023 | 0.017 | Ratio T/M (A431 tumor bearing mice; time not given): 0.35 (T/M); Incorporation into DNA (DNA): substantially lower |
